Results: patent US20150105252A1, “SUBSTITUTED PYRAZOLES AS HERBICIDES” (E I DU PONT DE NEMOURS AND COMPANY, priority 2013, published 2015)

How the values were obtained:
ragweed = test: Test C preemergence; type: in vivo, Ambrosia elation; settings: for Ragweed plant response rating: scale 0 to 100 (0 no effect, 100 complete control)
Description: (§1) Seeds of plant species selected from blackgrass (Alopecurus myosuroides), ryegrass, Italian (Italian ryegrass, Lolium multiflorum), wheat (winter wheat, Triticum aestivum), galium (catchweed bedstraw, Galium aparine), corn (Zea mays), crabgrass, large (large crabgrass, Digitaria sanguinalis), foxtail, giant (giant foxtail, Setaria faberii), johnsongrass (Sorghum halepense), lambsquarters (Chenopodium album), morningglory (Ipomoea coccinea), nutsedge, yellow (yellow nutsedge, Cyperus esculentus), pigweed (redroot pigweed, Amaranthus retroflexus), ragweed (common ragweed, Ambrosia elation), soybean (Glycine max), barnyardgrass (Echinochloa crus-galli), oilseed rape (Brassica napus), waterhemp (common waterhemp, Amaranthus rudis), oat, wild (wild oat, Avena fatua), kochia (Kochia scoparia), Surinam grass (Brachiaria decumbens), foxtail, green (green foxtail, Setaria viridis), goosegrass (Eleusine indica), bromegrass, downy (downy bromegrass, Bromus tectorum), nightshade (eastern black nightshade, Solanum ptycanthum), cocklebur (common cocklebur, Xanthium strumarium), cupgrass, woolly (woolly cupgrass, Eriochloa villosa), bermudagrass (Cynodon dactylon), sunflower, (common oilseed sunflower, Helianthus annuus), Russian thistle (Salsola kali), and velvetleaf (Abutilon theophrasti) were planted into a blend of loam soil and sand and treated preemergence with test chemicals formulated in a non-phytotoxic solvent mixture which included a surfactant.
(§2) At the same time, plants selected from these crop and weed species and also chickweed (common chickweed, Stellaria media), canarygrass (littleseed canarygrass, Phalaris minor), and deadnettle (henbit deadnettle, Lamium amplexicaule), were planted in pots containing Redi-Earth® planting medium (Scotts Company, 14111 Scottslawn Road, Marysville, Ohio 43041) comprising spaghnum peat moss, vermiculite, wetting agent and starter nutrients and treated with postemergence applications of test chemicals formulated in the same manner. Plants ranged in height from 2 to 18 cm (1- to 4-leaf stage) for postemergence treatments. Treated plants and controls were maintained in a greenhouse for 13 to 15 days, after which time all species were compared to controls and visually evaluated. Plant response ratings, summarized in Table C, are based on a scale of 0 to 100 where 0 is no effect and 100 is complete control. A dash (-) response means no test result.

wheat [1] = test: Test C preemergence; type: in vivo, Triticum aestivum; settings: for Wheat plant response rating: scale 0 to 100 (0 no effect, 100 complete control)
Description: as §1, §2

lambsquarters [2] = test: Test C preemergence; type: in vivo, Chenopodium album; settings: for Lambsquarters plant response rating: scale 0 to 100 (0 no effect, 100 complete control)
Description: as §1, §2

rice = test: Test B flood; type: in vivo, Oryza sativa; settings: 250 g ai/ha, visual rating on 0 to 100 scale (0 no effect, 100 complete control), 13 to 15 days
In short: (§3)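 Two-leaf-stage plants, pots flooded (3 cm above soil) and treated through the water, which stayed at that depth. After 13–15 days in greenhouse conditions, visual assessment versus controls: 0 is no effect, 100 complete control, dash means no result.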

wheat [3] = test: Test A postemergence; type: in vivo, Triticum aestivum
In short: (§4)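 Visual injury ratings, 0 = no effect to 100 = complete control, taken about 10 days after treatment against untreated controls. Test chemicals, in a non-phytotoxic surfactant-containing solvent, were sprayed onto soil preemergence or onto one- to two-leaf plants (2–10 cm) postemergence, in loam–sand soil under greenhouse conditions.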

corn = test: Test C preemergence; type: in vivo, Zea mays; settings: for Corn plant response rating: scale 0 to 100 (0 no effect, 100 complete control)
Description: as §1, §2

pigweed = test: Test A preemergence; type: in vivo, Amaranthus retroflexus
In short: as §4

sedge, umbrella = test: Test B flood; type: in vivo, Cyperus difformis; settings: 250 g ai/ha, visual rating on 0 to 100 scale (0 no effect, 100 complete control), 13 to 15 days
In short: as §3

galium = test: Test C preemergence; type: in vivo, Galium aparine; settings: for Galium plant response rating: scale 0 to 100 (0 no effect, 100 complete control)
Description: as §1, §2

lambsquarters [4] = test: Test C postemergence; type: in vivo, Chenopodium album; settings: for Plant response rating, Lambsquarters: postemergence
Description: as §1, §2

crabgrass, large = test: Test C postemergence; type: in vivo, Digitaria sanguinalis; settings: for Plant response rating, Crabgrass, Large: postemergence
Description: as §1, §2

ryegrass, Italian = test: Test C postemergence; type: in vivo, Lolium multiflorum; settings: postemergence
Description: as §1, §2

kochia = test: Test C postemergence; type: in vivo, Kochia scoparia; settings: for Plant response rating, Kochia: postemergence
Description: as §1, §2

[5] = Preemergence, 16 g ai/ha, scale 0 to 100
[6] = preemergence, 31 g ai/ha, visual rating, 13 to 15 days
[7] = preemergence, 62 g ai/ha, 13 to 15 days
[8] = preemergence, 125 g ai/ha, 13 to 15 days, scale 0 to 100, 0 = no effect, 100 = complete control
[9] = Postemergence, 31 g ai/ha, scale 0 to 100
[10] = 250 g ai/ha, scale 0 to 100 (0 no effect, 100 complete control)
[11] = 62 g ai/ha, scale 0 to 100, 0 no effect, 100 complete control
[12] = 125 g ai/ha, scale 0 to 100, 0 no effect, 100 complete control

CCNC(=O)c1cc(CCF)n(Cc2ccnc(C(F)(F)F)c2)n1 [Compound 178]
Plant response rating, Ragweed (ragweed; [5]): 60
Ragweed plant response rating (ragweed; [6]): 70
Ragweed plant response rating (ragweed; [7]): 85
Plant response rating, Ragweed (ragweed; [8]): 90
Plant response rating, Wheat (wheat [1]; [5]): 0
Wheat plant response rating (wheat [1]; [6]): 0
Wheat plant response rating (wheat [1]; [7]): 0
Plant response rating, Wheat (wheat [1]; [8]): 0
Plant response rating, Lambsquarters (lambsquarters [2]; [5]): 65
Lambsquarters plant response rating (lambsquarters [2]; [6]): 80
Lambsquarters plant response rating (lambsquarters [2]; [7]): 100
Plant response rating, Lambsquarters (lambsquarters [2]; [8]): 100
Plant response rating, Rice (rice): 0
Wheat plant response rating (wheat [3]; Postemergence, 500 g ai/ha, 0 to 100 scale (0 no effect, 100 complete control)): 30
Wheat plant response rating (wheat [3]; postemergence, 125 g ai/ha, about 10 days, visual rating on 0 to 100 scale (0 no effect, 100 complete control)): 0
Plant response rating, Corn (corn; [5]): 5
Corn plant response rating (corn; [6]): 5
Corn plant response rating (corn; [7]): 5
Plant response rating, Corn (corn; [8]): 25
Pigweed plant response rating (0 to 100 scale) (pigweed; preemergence, 125 g ai/ha, visual injury approx. 10 days after treatment): 100
Pigweed plant response rating (pigweed; preemergence, 500 g ai/ha, visual injury after approx. 10 days, 0 to 100 scale (0 no effect, 100 complete control)): 100
Plant response rating, Sedge, Umbrella (sedge, umbrella): 85
Plant response rating, Galium (galium; [5]): 70
Galium plant response rating (galium; [6]): 90
Galium plant response rating (galium; [7]): 90
Plant response rating, Galium (galium; [8]): 95

CCc1cc(C(=O)NCC(F)(F)F)nn1Cc1cccc(OC(F)(F)F)c1 [Compound 20]
Lambsquarters plant response rating (lambsquarters [4]; [9]): 60
Plant response rating, Lambsquarters (lambsquarters [4]; [10]): 75
Plant response rating, Lambsquarters (lambsquarters [4]; [11]): 60
Plant response rating, Lambsquarters (lambsquarters [4]; [12]): 65
Crabgrass, Large plant response rating (crabgrass, large; [9]): 10
Plant response rating, Crabgrass, Large (crabgrass, large; [10]): 45
Plant response rating, Crabgrass, Large (crabgrass, large; [11]): 20
Plant response rating, Crabgrass, Large (crabgrass, large; [12]): 35
Plant response rating, Ryegrass, Italian (ryegrass, Italian; [10]): 25
Plant response rating, Ryegrass, Italian (ryegrass, Italian; [11]): 10
Plant response rating, Ryegrass, Italian (ryegrass, Italian; [12]): 15
Kochia plant response rating (kochia; [9]): 90
Plant response rating, Kochia (kochia; [10]): 98
Plant response rating, Kochia (kochia; [11]): 95
Plant response rating, Kochia (kochia; [12]): 98
Wheat plant response rating (wheat [3]; Postemergence, 1000 g ai/ha, visual rating after approx. 10 days, 0 to 100 scale (0 no effect, 100 complete control)): 40
Pigweed plant response rating (pigweed; Preemergence, 1000 g ai/ha, 0 to 100 scale, 0 no effect, 100 complete control): 100
